From ChEMBL document CHEMBL1146362, “Organoiodine(III) mediated synthesis of 3,9-diaryl- and 3,9-difuryl-bis-1,2,4-triazolo[4,3-a][4,3-c]pyrimidines as antibacterial agents” (2007)
Converted amounts (≈) assume the structure as drawn. The source made the active and inactive calls. The calls are words filed in the database; no cut-off is given here.

What was measured:
Staphylococcus aureus [1] = assay: Antibacterial activity against Staphylococcus aureus MTCC 3160 after 24 hrs by agar diffusion assay; assay type: functional
Salmonella typhi [2] = assay: Antibacterial activity against Salmonella typhi MTCC 733 after 24 hrs by agar diffusion assay; assay type: functional, Salmonella enterica subsp. enterica serovar Typhi
[3] = test system: Staphylococcus epidermidis; assay: Antibacterial activity against Staphylococcus epidermidis MTCC 2639 after 24 hrs by agar diffusion assay; assay type: functional
Escherichia coli [4] = assay: Antibacterial activity against Escherichia coli MTCC 51 after 24 hrs by agar diffusion assay; assay type: functional
Bacillus subtilis [5] = assay: Antibacterial activity against Bacillus subtilis MTCC 121 after 24 hrs by agar diffusion assay; assay type: functional
Staphylococcus aureus [6] = assay: Antibacterial activity against Staphylococcus aureus MTCC 3160 after 24 hrs by agar dilution assay; assay type: functional; details: MTCC 3160, 24 h
Salmonella typhi [7] = assay: Antibacterial activity against Salmonella typhi MTCC 733 after 24 hrs by agar dilution assay; assay type: functional, Salmonella enterica subsp. enterica serovar Typhi; details: Salmonella enterica, MTCC 733, 24 h
[8] = test system: Staphylococcus epidermidis; assay: Antibacterial activity against Staphylococcus epidermidis MTCC 2639 after 24 hrs by agar dilution assay; assay type: functional; details: MTCC 2639, 24 h
Escherichia coli [9] = assay: Antibacterial activity against Escherichia coli MTCC 51 after 24 hrs by agar dilution assay; assay type: functional; details: MTCC 51, 24 h
Bacillus subtilis [10] = assay: Antibacterial activity against Bacillus subtilis MTCC 121 after 24 hrs by agar dilution assay; assay type: functional; details: MTCC 121, 24 h

For `Brc1ccc(-c2nnc3n2ccc2nnc(-c4ccc(Br)cc4)n23)cc1`, the Activity (Staphylococcus aureus [1]) was “inactive”, the “inhibition zone (IZ)” value (Salmonella typhi [2]) was 15 mm and the Activity [3] was “inactive”. The Activity (Escherichia coli [4]) was “inactive”, the Activity (Bacillus subtilis [5]) was “inactive” and the MIC (Staphylococcus aureus [6]) was greater than 64 µg/mL. It also gave an MIC (Salmonella typhi [7]) of 32 µg/mL (≈ 68.1 µM), an MIC [8] greater than 64 µg/mL and an MIC (Escherichia coli [9]) greater than 64 µg/mL. For the same compound, the MIC (Bacillus subtilis [10]) was greater than 64 µg/mL.
In the case of `Clc1ccc(-c2nnc3n2ccc2nnc(-c4ccc(Cl)cc4)n23)cc1`, the “inhibition zone (IZ)” value (Staphylococcus aureus [1]) is reported as 15 mm, the “inhibition zone (IZ)” value (Salmonella typhi [2]) is reported as 20 mm and the Activity [3] is reported as “inactive”. The Activity (Escherichia coli [4]) was “inactive”, the “inhibition zone (IZ)” value (Bacillus subtilis [5]) was 20 mm and the MIC (Staphylococcus aureus [6]) was 32 µg/mL (≈ 83.9 µM). It also gave an MIC (Salmonella typhi [7]) of 8 µg/mL (≈ 21 µM), an MIC [8] greater than 64 µg/mL and an MIC (Escherichia coli [9]) greater than 64 µg/mL. For the same compound, the MIC (Bacillus subtilis [10]) was 8 µg/mL (≈ 21 µM).
Compound `CC(=O)NC[C@H]1CN(c2ccc(N3CCOCC3)c(F)c2)C(=O)O1` [LINEZOLID] has an MIC (Salmonella typhi [7]) of 2 µg/mL (≈ 5.93 µM), an MIC [8] of 8 µg/mL (≈ 23.7 µM) and an MIC (Escherichia coli [9]) of 8 µg/mL (≈ 23.7 µM). It also gave an MIC (Bacillus subtilis [10]) of 2 µg/mL (≈ 5.93 µM).
In the case of `COc1ccc(OC)c(-c2nnc3n2ccc2nnc(-c4cc(OC)ccc4OC)n23)c1`, the “inhibition zone (IZ)” value (Staphylococcus aureus [1]) is reported as 20.16 mm, the “inhibition zone (IZ)” value (Salmonella typhi [2]) is reported as 20 mm and the “inhibition zone (IZ)” value [3] is reported as 20 mm. The Activity (Escherichia coli [4]) was “inactive”, the “inhibition zone (IZ)” value (Bacillus subtilis [5]) was 15.16 mm and the MIC (Staphylococcus aureus [6]) was 8 µg/mL (≈ 18.5 µM). It also gave an MIC (Salmonella typhi [7]) of 8 µg/mL (≈ 18.5 µM), an MIC [8] of 8 µg/mL (≈ 18.5 µM) and an MIC (Escherichia coli [9]) greater than 64 µg/mL. It also gave an MIC (Bacillus subtilis [10]) of 32 µg/mL (≈ 74 µM).
With `Cc1ccc(-c2nnc3n2ccc2nnc(-c4ccc(C)cc4)n23)cc1` the Activity (Staphylococcus aureus [1]) was “inactive”, the Activity (Salmonella typhi [2]; Salmonella enterica subsp. enterica serovar Typhi) was “inactive” and the Activity [3] was “inactive”. The Activity (Escherichia coli [4]) was “inactive”, the “inhibition zone (IZ)” value (Bacillus subtilis [5]) was 20.83 mm and the MIC (Staphylococcus aureus [6]) was greater than 64 µg/mL. The MIC (Salmonella typhi [7]) was greater than 64 µg/mL, the MIC [8] was greater than 64 µg/mL and the MIC (Escherichia coli [9]) was greater than 64 µg/mL. The MIC (Bacillus subtilis [10]) was 8 µg/mL (≈ 23.5 µM).
For `O=[N+]([O-])c1ccc(-c2nnc3n2ccc2nnc(-c4ccc([N+](=O)[O-])cc4)n23)cc1`, the “inhibition zone (IZ)” value (Staphylococcus aureus [1]) was 30 mm, the “inhibition zone (IZ)” value (Salmonella typhi [2]) was 30 mm and the “inhibition zone (IZ)” value [3] was 25.16 mm. The “inhibition zone (IZ)” value (Escherichia coli [4]) was 25 mm, the “inhibition zone (IZ)” value (Bacillus subtilis [5]) was 30 mm and the MIC (Staphylococcus aureus [6]) was 1 µg/mL (≈ 2.49 µM). For the same compound, the MIC (Salmonella typhi [7]) was 1 µg/mL (≈ 2.49 µM), the MIC [8] was 2 µg/mL (≈ 4.97 µM) and the MIC (Escherichia coli [9]) was 2 µg/mL (≈ 4.97 µM). It also gave an MIC (Bacillus subtilis [10]) of 1 µg/mL (≈ 2.49 µM).
`O=[N+]([O-])c1ccc(-c2nnc3n2ccc2nnc(-c4ccc([N+](=O)[O-])o4)n23)o1` was tested, and the “inhibition zone (IZ)” value (Staphylococcus aureus [1]) was 20.83 mm, the “inhibition zone (IZ)” value (Salmonella typhi [2]) was 35.16 mm and the “inhibition zone (IZ)” value [3] was 35 mm. The “inhibition zone (IZ)” value (Escherichia coli [4]) was 30 mm, the “inhibition zone (IZ)” value (Bacillus subtilis [5]) was 40 mm and the MIC (Staphylococcus aureus [6]) was 8 µg/mL (≈ 20.9 µM). For the same compound, the MIC (Salmonella typhi [7]) was 1 µg/mL (≈ 2.62 µM), the MIC [8] was 1 µg/mL (≈ 2.62 µM) and the MIC (Escherichia coli [9]) was 2 µg/mL (≈ 5.23 µM). It also gave an MIC (Bacillus subtilis [10]) of 0.5 µg/mL (≈ 1.31 µM).
`N[C@@H](C(=O)N[C@@H]1C(=O)N2C(C(=O)O)=C(Cl)CS[C@H]12)c1ccccc1` [CEFACLOR ANHYDROUS] gave an MIC (Staphylococcus aureus [6]) of 4 µg/mL (≈ 10.9 µM), an MIC (Salmonella typhi [7]) of 2 µg/mL (≈ 5.44 µM) and an MIC [8] of 4 µg/mL (≈ 10.9 µM). It also gave an MIC (Escherichia coli [9]) of 4 µg/mL (≈ 10.9 µM) and an MIC (Bacillus subtilis [10]) of 8 µg/mL (≈ 21.8 µM).
With `COc1ccc(-c2nnc3n2ccc2nnc(-c4ccc(OC)cc4)n23)cc1` the “inhibition zone (IZ)” value (Staphylococcus aureus [1]) was 10.83 mm, the “inhibition zone (IZ)” value (Salmonella typhi [2]) was 10 mm and the Activity [3] was “inactive”. For the same compound, the Activity (Escherichia coli [4]) was “inactive”, the “inhibition zone (IZ)” value (Bacillus subtilis [5]) was 10 mm and the MIC (Staphylococcus aureus [6]) was 64 µg/mL (≈ 172 µM). For the same compound, the MIC (Salmonella typhi [7]) was 64 µg/mL (≈ 172 µM), the MIC [8] was greater than 64 µg/mL and the MIC (Escherichia coli [9]) was greater than 64 µg/mL. It also gave an MIC (Bacillus subtilis [10]) of 64 µg/mL (≈ 172 µM).
In the case of `c1coc(-c2nnc3n2ccc2nnc(-c4ccco4)n23)c1`, the “inhibition zone (IZ)” value (Staphylococcus aureus [1]) is reported as 40 mm, the “inhibition zone (IZ)” value (Salmonella typhi [2]) is reported as 10 mm and the “inhibition zone (IZ)” value [3] is reported as 10 mm. For the same compound, the “inhibition zone (IZ)” value (Escherichia coli [4]) was 10 mm, the “inhibition zone (IZ)” value (Bacillus subtilis [5]) was 20 mm and the MIC (Staphylococcus aureus [6]) was 0.5 µg/mL (≈ 1.71 µM). For the same compound, the MIC (Salmonella typhi [7]) was 64 µg/mL (≈ 219 µM), the MIC [8] was 64 µg/mL (≈ 219 µM) and the MIC (Escherichia coli [9]) was 64 µg/mL (≈ 219 µM). The MIC (Bacillus subtilis [10]) was 8 µg/mL (≈ 27.4 µM).
With `Fc1ccc(-c2nnc3n2ccc2nnc(-c4ccc(F)cc4)n23)cc1` the “inhibition zone (IZ)” value (Staphylococcus aureus [1]) was 24.83 mm, the “inhibition zone (IZ)” value (Salmonella typhi [2]) was 10 mm and the “inhibition zone (IZ)” value [3] was 25 mm. For the same compound, the Activity (Escherichia coli [4]) was “inactive”, the “inhibition zone (IZ)” value (Bacillus subtilis [5]) was 25 mm and the MIC (Staphylococcus aureus [6]) was 4 µg/mL (≈ 11.5 µM). It also gave an MIC (Salmonella typhi [7]) of 64 µg/mL (≈ 184 µM), an MIC [8] of 4 µg/mL (≈ 11.5 µM) and an MIC (Escherichia coli [9]) of 4 µg/mL (≈ 11.5 µM). For the same compound, the MIC (Bacillus subtilis [10]) was 2 µg/mL (≈ 5.74 µM).
